Assays:
Test in all cases: cells
MPP-89 = type: functional, cell-based, Homo sapiens; conditions: Homo sapiens, MPP-89;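 also: growth inhibition of human MPP-89 cells, read out with a cell viability assay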
Description: SANGER: Inhibition of human MPP-89 cell growth in a cell viability assay.

LC-2-ad = type: functional, cell-based, Homo sapiens; conditions: Homo sapiens, LC-2-ad;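 also: growth inhibition of human LC-2-ad cells, read out with a cell viability assay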
Description: SANGER: Inhibition of human LC-2-ad cell growth in a cell viability assay.

EW-16 = type: functional, cell-based, Homo sapiens; conditions: Homo sapiens, EW-16;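 also: growth inhibition of human EW-16 cells, read out as cell viability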
Description: SANGER: Inhibition of human EW-16 cell growth in a cell viability assay.

HT = type: functional, cell-based, Homo sapiens; conditions: Homo sapiens, HT
Description: SANGER: Inhibition of human HT cell growth in a cell viability assay.

TE-9 = type: functional, cell-based, Homo sapiens; conditions: Homo sapiens, TE-9;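 also: cell growth inhibition, measured with a cell viability readout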
Description: SANGER: Inhibition of human TE-9 cell growth in a cell viability assay.

EM-2 = type: functional, cell-based, Homo sapiens; conditions: Homo sapiens, EM-2;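 also: growth inhibition of EM-2 cells, read out with a cell viability assay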
Description: SANGER: Inhibition of human EM-2 cell growth in a cell viability assay.

GAK = type: functional, cell-based, Homo sapiens; conditions: Homo sapiens, GAK;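 also: cell growth inhibition read out by a cell viability assay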
Description: SANGER: Inhibition of human GAK cell growth in a cell viability assay.

BV-173 = type: functional, cell-based, Homo sapiens; conditions: Homo sapiens, BV-173
Description: SANGER: Inhibition of human BV-173 cell growth in a cell viability assay.

ACN = type: functional, cell-based, Homo sapiens; conditions: Homo sapiens, ACN;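 also: growth inhibition of the human ACN cell line, read out via cell viability testing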
Description: SANGER: Inhibition of human ACN cell growth in a cell viability assay.

KGN = type: functional, cell-based, Homo sapiens; conditions: Homo sapiens, KGN;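 also: growth inhibition of KGN cells, read out with a cell viability assay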
Description: SANGER: Inhibition of human KGN cell growth in a cell viability assay.

NCI-H1395 = type: functional, cell-based, Homo sapiens; conditions: Homo sapiens, NCI-H1395;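 also: cell viability assay read-out quantifying reduced proliferation of human NCI-H1395 cells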
Description: SANGER: Inhibition of human NCI-H1395 cell growth in a cell viability assay.

IST-MEL1 = type: functional, cell-based, Homo sapiens; conditions: Homo sapiens, IST-MEL1;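 also: growth inhibition of the cell line, read out with a cell viability assay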
Description: SANGER: Inhibition of human IST-MEL1 cell growth in a cell viability assay.

D-502MG = type: functional, cell-based, Homo sapiens; conditions: Homo sapiens, D-502MG
Description: SANGER: Inhibition of human D-502MG cell growth in a cell viability assay.

NB5 = type: functional, cell-based, Homo sapiens; conditions: Homo sapiens, NB5;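 also: growth inhibition of NB5 cells, read out as cell viability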
Description: SANGER: Inhibition of human NB5 cell growth in a cell viability assay.

A704 = type: functional, cell-based; conditions: Homo sapiens;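 also: growth inhibition of human A704 cells, read out with a cell viability assay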
Description: SANGER: Inhibition of human A704 cell growth in a cell viability assay.

TE-5 = type: functional, cell-based, Homo sapiens; conditions: Homo sapiens, TE-5;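 also: inhibition of cell growth, read out by a cell viability assay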
Description: SANGER: Inhibition of human TE-5 cell growth in a cell viability assay.

NCI-H226 = type: functional, cell-based, Homo sapiens; conditions: Homo sapiens, NCI-H226;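 also: cell viability read-out used to gauge growth inhibition of the cells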
Description: SANGER: Inhibition of human NCI-H226 cell growth in a cell viability assay.

LS-513 = type: functional, cell-based, Homo sapiens; conditions: Homo sapiens, LS-513
Description: SANGER: Inhibition of human LS-513 cell growth in a cell viability assay.

EW-11 = type: functional, cell-based, Homo sapiens; conditions: Homo sapiens, EW-11;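 also: growth inhibition of human EW-11 cells, measured with a cell viability assay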
Description: SANGER: Inhibition of human EW-11 cell growth in a cell viability assay.

HEL = type: functional, cell-based, Homo sapiens; conditions: Homo sapiens, HEL;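 also: growth inhibition of HEL cells, read out with a cell viability assay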
Description: SANGER: Inhibition of human HEL cell growth in a cell viability assay.

HDLM-2 = type: functional, cell-based, Homo sapiens; conditions: Homo sapiens, HDLM-2;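 also: cell viability assay measuring suppression of HDLM-2 proliferation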
Description: SANGER: Inhibition of human HDLM-2 cell growth in a cell viability assay.

EW-18 = type: functional, cell-based, Homo sapiens; conditions: Homo sapiens, EW-18; read-out: IC50;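 also: growth inhibition of EW-18 cells, read out by a cell viability assay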
Description: SANGER: Inhibition of human EW-18 cell growth in a cell viability assay.

KLE = type: functional, cell-based; conditions: Homo sapiens;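 also: growth inhibition of human KLE cells, read out with a cell viability assay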
Description: SANGER: Inhibition of human KLE cell growth in a cell viability assay.

KY821 = type: functional, cell-based, Homo sapiens; conditions: Homo sapiens, KY821;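 also: growth inhibition of human KY821 cells, read out by a cell viability assay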
Description: SANGER: Inhibition of human KY821 cell growth in a cell viability assay.

NCI-H1623 = type: functional, cell-based; conditions: Homo sapiens;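 also: cell viability assay used as the read-out for growth inhibition of NCI-H1623 cells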
Description: SANGER: Inhibition of human NCI-H1623 cell growth in a cell viability assay.

A388 = type: functional, cell-based; conditions: Homo sapiens;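 also: growth inhibition of human A388 cells, read out with a cell viability assay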
Description: SANGER: Inhibition of human A388 cell growth in a cell viability assay.

DU-4475 = type: functional, cell-based, Homo sapiens; conditions: Homo sapiens, DU-4475
Description: SANGER: Inhibition of human DU-4475 cell growth in a cell viability assay.

ES7 = type: functional, cell-based, Homo sapiens; conditions: Homo sapiens, ES7;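 also: growth inhibition of cultured human ES7 cells, read out as cell viability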
Description: SANGER: Inhibition of human ES7 cell growth in a cell viability assay.

DOHH-2 = type: functional, cell-based, Homo sapiens; conditions: Homo sapiens, DOHH-2;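 also: growth inhibition of human DOHH-2 cells, read out with a cell viability assay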
Description: SANGER: Inhibition of human DOHH-2 cell growth in a cell viability assay.

NCI-H1092 = type: functional, cell-based, Homo sapiens; conditions: Homo sapiens, NCI-H1092;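 also: cell growth inhibition measured with a cell viability assay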
Description: SANGER: Inhibition of human NCI-H1092 cell growth in a cell viability assay.

LAN-6 = type: functional, cell-based, Homo sapiens; conditions: Homo sapiens, LAN-6;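 also: growth inhibition of LAN-6 cells, determined with a cell viability assay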
Description: SANGER: Inhibition of human LAN-6 cell growth in a cell viability assay.

KINGS-1 = type: functional, cell-based, Homo sapiens; conditions: Homo sapiens, KINGS-1;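 also: cell viability assay measuring suppression of KINGS-1 cell growth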
Description: SANGER: Inhibition of human KINGS-1 cell growth in a cell viability assay.

NCI-H1838 = type: functional, cell-based, Homo sapiens; conditions: Homo sapiens, NCI-H1838;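 also: growth inhibition of NCI-H1838 cells, determined with a cell viability readout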
Description: SANGER: Inhibition of human NCI-H1838 cell growth in a cell viability assay.

SW982 = type: functional, cell-based; conditions: Homo sapiens;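 also: growth inhibition of SW982 cells, read out with a cell viability assay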
Description: SANGER: Inhibition of human SW982 cell growth in a cell viability assay.

NCI-H69 = type: functional, cell-based, Homo sapiens; conditions: Homo sapiens, NCI-H69;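 also: growth inhibition of the cell line, read out with a cell viability assay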
Description: SANGER: Inhibition of human NCI-H69 cell growth in a cell viability assay.

U-118-MG = type: functional, cell-based; conditions: Homo sapiens
Description: SANGER: Inhibition of human U-118-MG cell growth in a cell viability assay.

QIMR-WIL = type: functional, cell-based, Homo sapiens; conditions: Homo sapiens, QIMR-WIL;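 also: growth inhibition of QIMR-WIL cells, read out with a cell viability assay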
Description: SANGER: Inhibition of human QIMR-WIL cell growth in a cell viability assay.

IST-SL1 = type: functional, cell-based, Homo sapiens; conditions: Homo sapiens, IST-SL1;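 also: growth inhibition of human IST-SL1 cells, read out with a cell viability assay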
Description: SANGER: Inhibition of human IST-SL1 cell growth in a cell viability assay.

TE-8 = type: functional, cell-based, Homo sapiens; conditions: Homo sapiens, TE-8;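 also: growth inhibition of TE-8 cells, measured with a cell viability readout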
Description: SANGER: Inhibition of human TE-8 cell growth in a cell viability assay.

MSTO-211H = type: functional, cell-based, Homo sapiens; conditions: Homo sapiens, MSTO-211H
Description: SANGER: Inhibition of human MSTO-211H cell growth in a cell viability assay.

NCI-H1770 = type: functional, cell-based, Homo sapiens; conditions: Homo sapiens, NCI-H1770;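 also: growth inhibition of NCI-H1770 cells determined with a viability readout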
Description: SANGER: Inhibition of human NCI-H1770 cell growth in a cell viability assay.

OCUB-M = type: functional, cell-based; conditions: Homo sapiens;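 also: growth inhibition of the cancer cell line, read out through a cell viability assay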
Description: SANGER: Inhibition of human OCUB-M cell growth in a cell viability assay.

no-10 = type: functional, cell-based, Homo sapiens; conditions: Homo sapiens;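 also: growth inhibition of no-10 cells, read out with a cell viability assay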
Description: SANGER: Inhibition of human no-10 cell growth in a cell viability assay.

D-247MG = type: functional, cell-based; conditions: Homo sapiens
Description: SANGER: Inhibition of human D-247MG cell growth in a cell viability assay.

SW872 = type: functional, cell-based, Homo sapiens; conditions: Homo sapiens, SW872;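 also: growth inhibition of SW872 cells, read out by a viability assay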
Description: SANGER: Inhibition of human SW872 cell growth in a cell viability assay.

DOK = type: functional, cell-based; conditions: Homo sapiens;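 also: cell viability assay read-out, values reflect inhibition of cell growth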
Description: SANGER: Inhibition of human DOK cell growth in a cell viability assay.

NCI-H1581 = type: functional, cell-based, Homo sapiens; conditions: Homo sapiens, NCI-H1581;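 also: cell growth inhibition read out by a viability assay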
Description: SANGER: Inhibition of human NCI-H1581 cell growth in a cell viability assay.

OCI-AML2 = type: functional, cell-based, Homo sapiens; conditions: Homo sapiens, OCI-AML2;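 also: growth inhibition of OCI-AML2 cells, read out with a cell viability assay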
Description: SANGER: Inhibition of human OCI-AML2 cell growth in a cell viability assay.

no-11 = type: functional, cell-based, Homo sapiens; conditions: Homo sapiens;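 also: growth inhibition of human NO-11 cells, read out with a cell viability assay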
Description: SANGER: Inhibition of human no-11 cell growth in a cell viability assay.

BB30-HNC = type: functional, cell-based, Homo sapiens; conditions: Homo sapiens, BB30-HNC;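 also: growth inhibition of the cultured cell line, read out by a cell viability assay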
Description: SANGER: Inhibition of human BB30-HNC cell growth in a cell viability assay.

SK-UT-1 = type: functional, cell-based, Homo sapiens; conditions: Homo sapiens, SK-UT-1;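 also: growth inhibition of SK-UT-1 cells, measured by a cell viability assay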
Description: SANGER: Inhibition of human SK-UT-1 cell growth in a cell viability assay.

MMAC-SF = type: functional, cell-based; conditions: Homo sapiens;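 also: growth inhibition of human MMAC-SF cells, read out with a cell viability assay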
Description: SANGER: Inhibition of human MMAC-SF cell growth in a cell viability assay.

Question: What does the source list for `CN(C)CCOc1ccc(-c2nc(-c3ccncc3)c(-c3ccc4c(c3)CC/C4=N\O)[nH]2)cc1` [SB590885]?
Answer: IC50 (MPP-89): > 5 µM; IC50 (LC-2-ad): > 5 µM; IC50 (EW-16): > 5 µM; IC50 (HT): > 5 µM; IC50 (TE-9): > 5 µM; IC50 (EM-2): > 5 µM; IC50 (GAK): > 5 µM; IC50 (BV-173): 0.771 µM; IC50 (ACN): 1.15 µM; IC50 (KGN): > 5 µM; IC50 (NCI-H1395): > 5 µM; IC50 (IST-MEL1): > 5 µM; IC50 (D-502MG): > 5 µM; IC50 (NB5): > 5 µM; IC50 (A704): > 5 µM; IC50 (TE-5): > 5 µM; IC50 (NCI-H226): > 5 µM; IC50 (LS-513): > 5 µM; IC50 (EW-11): > 5 µM; IC50 (HEL): > 5 µM; IC50 (HDLM-2): > 5 µM; IC50 (EW-18): > 5 µM; IC50 (KLE): > 5 µM; IC50 (KY821): > 5 µM; IC50 (NCI-H1623): > 5 µM; IC50 (A388): > 5 µM; IC50 (DU-4475): 0.0235 µM; IC50 (ES7): > 5 µM; IC50 (DOHH-2): > 5 µM; IC50 (NCI-H1092): > 5 µM; IC50 (LAN-6): > 5 µM; IC50 (KINGS-1): > 5 µM; IC50 (NCI-H1838): > 5 µM; IC50 (SW982): > 5 µM; IC50 (NCI-H69): > 5 µM; IC50 (U-118-MG): > 5 µM; IC50 (QIMR-WIL): > 5 µM; IC50 (IST-SL1): > 5 µM; IC50 (TE-8): > 5 µM; IC50 (MSTO-211H): > 5 µM; IC50 (NCI-H1770): > 5 µM; IC50 (OCUB-M): > 5 µM; IC50 (no-10): > 5 µM; IC50 (D-247MG): > 5 µM; IC50 (SW872): > 5 µM; IC50 (DOK): > 5 µM; IC50 (NCI-H1581): > 5 µM; IC50 (OCI-AML2): > 5 µM; IC50 (no-11): > 5 µM; IC50 (BB30-HNC): > 5 µM

Question: What does the source list for `CS(=O)(=O)N1CCN(Cc2cc3nc(-c4cccc5[nH]ncc45)nc(N4CCOCC4)c3s2)CC1` [PICTILISIB]?
Answer: IC50 (MPP-89): > 4 µM; IC50 (LC-2-ad): > 4 µM; IC50 (EW-16): 1.85 µM; IC50 (HT): 1.13 µM; IC50 (TE-9): > 4 µM; IC50 (EM-2): 2.51 µM; IC50 (GAK): > 4 µM; IC50 (ACN): > 4 µM; IC50 (KGN): > 4 µM; IC50 (NCI-H1395): > 4 µM; IC50 (IST-MEL1): > 4 µM; IC50 (D-502MG): 2.32 µM; IC50 (NB5): 0.957 µM; IC50 (A704): 1.51 µM; IC50 (TE-5): > 4 µM; IC50 (NCI-H226): > 4 µM; IC50 (LS-513): > 4 µM; IC50 (EW-11): > 4 µM; IC50 (HEL): > 4 µM; IC50 (HDLM-2): 0.949 µM; IC50 (KLE): > 4 µM; IC50 (NCI-H1623): 0.304 µM; IC50 (A388): > 4 µM; IC50 (DU-4475): > 4 µM; IC50 (ES7): 0.342 µM; IC50 (DOHH-2): > 4 µM; IC50 (NCI-H1092): > 4 µM; IC50 (LAN-6): > 4 µM; IC50 (KINGS-1): > 4 µM; IC50 (NCI-H1838): > 4 µM; IC50 (SW982): > 4 µM; IC50 (U-118-MG): > 4 µM; IC50 (QIMR-WIL): 0.865 µM; IC50 (IST-SL1): > 4 µM; IC50 (TE-8): 3.48 µM; IC50 (MSTO-211H): > 4 µM; IC50 (NCI-H1770): 0.124 µM; IC50 (OCUB-M): > 4 µM; IC50 (no-10): > 4 µM; IC50 (D-247MG): > 4 µM; IC50 (SW872): 0.728 µM; IC50 (DOK): 0.302 µM; IC50 (NCI-H1581): > 4 µM; IC50 (OCI-AML2): > 4 µM; IC50 (no-11): > 4 µM; IC50 (BB30-HNC): > 4 µM

Question: With `COc1ccc(-c2cc3nccn3c(Nc3ncccc3C(N)=O)n2)cc1OC` as the compound, how does the IC50 (MPP-89) read?
Answer: The IC50 was 1.67 µM.

Question: What about the IC50 (LC-2-ad) of the same compound?
Answer: Its IC50 is 1.82 µM.

Question: And the IC50 (EW-16)?
Answer: The IC50 was 1.68 µM.

Question: What about the IC50 (HT) of the same compound?
Answer: Its IC50 is 6.22 µM.

Question: And the IC50 (TE-9)?
Answer: Its IC50 is greater than 8 µM.

Question: And the IC50 (EM-2)?
Answer: The IC50 was greater than 8 µM.

Question: And the IC50 (GAK)?
Answer: Its IC50 is greater than 8 µM.

Question: And the IC50 (BV-173)?
Answer: The IC50 was greater than 8 µM.

Question: What about the IC50 (ACN) of the same compound?
Answer: The IC50 was greater than 8 µM.

Question: What about the IC50 (KGN) of the same compound?
Answer: The IC50 was 1.54 µM.

Question: And the IC50 (NCI-H1395)?
Answer: Its IC50 is greater than 8 µM.

Question: What about the IC50 (IST-MEL1) of the same compound?
Answer: Its IC50 is 4.61 µM.

Question: What about the IC50 (D-502MG) of the same compound?
Answer: Its IC50 is greater than 8 µM.

Question: And the IC50 (NB5)?
Answer: Its IC50 is greater than 8 µM.

Question: And the IC50 (A704)?
Answer: Its IC50 is greater than 8 µM.

Question: And the IC50 (TE-5)?
Answer: Its IC50 is 5.54 µM.

Question: What about the IC50 (NCI-H226) of the same compound?
Answer: The IC50 was 4.03 µM.

Question: And the IC50 (LS-513)?
Answer: Its IC50 is greater than 8 µM.

Question: What about the IC50 (EW-11) of the same compound?
Answer: Its IC50 is greater than 8 µM.

Question: And the IC50 (HEL)?
Answer: Its IC50 is 1.35 µM.

Question: What about the IC50 (SK-UT-1) of the same compound?
Answer: Its IC50 is 6.24 µM.

Question: What about the IC50 (HDLM-2) of the same compound?
Answer: Its IC50 is greater than 8 µM.

Question: What about the IC50 (EW-18) of the same compound?
Answer: The IC50 was 4.58 µM.

Question: What about the IC50 (KLE) of the same compound?
Answer: The IC50 was greater than 8 µM.

Question: What about the IC50 (KY821) of the same compound?
Answer: Its IC50 is greater than 8 µM.

Question: What about the IC50 (NCI-H1623) of the same compound?
Answer: The IC50 was greater than 8 µM.

Question: What about the IC50 (A388) of the same compound?
Answer: The IC50 was 5.95 µM.

Question: And the IC50 (DU-4475)?
Answer: The IC50 was 2.17 µM.

Question: And the IC50 (ES7)?
Answer: The IC50 was 1.09 µM.

Question: What about the IC50 (DOHH-2) of the same compound?
Answer: Its IC50 is 2.03 µM.

Question: And the IC50 (NCI-H1092)?
Answer: The IC50 was greater than 8 µM.

Question: And the IC50 (LAN-6)?
Answer: The IC50 was greater than 8 µM.

Question: What about the IC50 (KINGS-1) of the same compound?
Answer: Its IC50 is greater than 8 µM.

Question: And the IC50 (NCI-H1838)?
Answer: Its IC50 is greater than 8 µM.

Question: And the IC50 (SW982)?
Answer: The IC50 was 0.775 µM.

Question: What about the IC50 (NCI-H69) of the same compound?
Answer: The IC50 was greater than 8 µM.

Question: What about the IC50 (MMAC-SF) of the same compound?
Answer: The IC50 was greater than 8 µM.

Question: What about the IC50 (U-118-MG) of the same compound?
Answer: Its IC50 is 6.78 µM.

Question: And the IC50 (QIMR-WIL)?
Answer: Its IC50 is 0.582 µM.

Question: And the IC50 (IST-SL1)?
Answer: Its IC50 is 7.98 µM.

Question: And the IC50 (TE-8)?
Answer: Its IC50 is 2.43 µM.

Question: What about the IC50 (MSTO-211H) of the same compound?
Answer: The IC50 was greater than 8 µM.

Question: And the IC50 (NCI-H1770)?
Answer: The IC50 was 2.61 µM.

Question: And the IC50 (OCUB-M)?
Answer: The IC50 was 4.11 µM.

Question: And the IC50 (no-10)?
Answer: Its IC50 is greater than 8 µM.

Question: What about the IC50 (SW872) of the same compound?
Answer: Its IC50 is 1.18 µM.

Question: What about the IC50 (DOK) of the same compound?
Answer: Its IC50 is greater than 8 µM.

Question: What about the IC50 (NCI-H1581) of the same compound?
Answer: The IC50 was greater than 8 µM.

Question: What about the IC50 (OCI-AML2) of the same compound?
Answer: The IC50 was 4.48 µM.

Question: And the IC50 (no-11)?
Answer: Its IC50 is greater than 8 µM.

Question: What about the IC50 (BB30-HNC) of the same compound?
Answer: The IC50 was 2.82 µM.
